Test results reported in US10688061B2, “Formation of delivery agents targeted to degraded elastic fibers” (priority 2012, dated 2020).

Test system: Rat aortic vascular smooth muscle cells
Conditions: positive control (FIG. 22)
Procedure: Cells were seeded at 10,000 cells/cm^2. At 70% confluency, cells were incubated with nanoparticles for 4 hours following which cell viability was determined using a LIVE/DEAD Cell Viability assay (Molecular Probes, Grand Island, N.Y.). Cells fluorescing green were considered alive while cells fluorescing red were considered dead. Additionally, proliferation of cells was estimated using the MTT (3-(4,5-Dimethyl-2-thiazolyl)-2,5-diphenyl-2H-tetrazolium bromide) assay. Briefly, 5 mg of MTT (Sigma Aldrich, St. Louis, Mo.) was dissolved in 10 ml of serum-free media and added to cells. After 4 hours, media was carefully aspirated and the insoluble formazan dye was collected with dimethyl sulfoxide (DMSO) (Sigma Aldrich, St, Louis, Mo.). Absorbance was read at 560 nm and normalized to control (no treatment) readings.

CCO [70% ethanol, ethanol]
Cell death: > 95%
